Values quoted from earlier work in patent publication US7419680B2, “Calcium phosphate-based materials containing zinc, magnesium, fluoride and carbonate” (New York University, priority 2003, dated 2008).

Settings: earlier studies

b-alanyl-L-histadanato zinc
bone density / bone loss in vivo: effective in increasing bone density or in preventing bone loss in vivo
